Experimental data reported in patent publication EP4692080A1, “PREPARATION METHOD FOR SALT FORM AND CRYSTAL FORM OF 2,6-PIPERIDINEDIONE COMPOUND AND USE THEREOF” (priority 2023, dated 2024).
Counter-ions that a name gives are not always drawn.

Assays:
IRAK4 = target: T1, IRAK4 (Homo sapiens, UniProt Q9NWZ3); test: Target protein degradation in K562 IRAK4-HiBiT cells (Nano-Glo HiBiT assay); format: cell-based; details: K562, read-out: Maximum Degradation Rate
T1 construct: expressed in transfected cells; host or cells: K562 IRAK4-HiBiT cells
T1 sequence (Q9NWZ3 1-460): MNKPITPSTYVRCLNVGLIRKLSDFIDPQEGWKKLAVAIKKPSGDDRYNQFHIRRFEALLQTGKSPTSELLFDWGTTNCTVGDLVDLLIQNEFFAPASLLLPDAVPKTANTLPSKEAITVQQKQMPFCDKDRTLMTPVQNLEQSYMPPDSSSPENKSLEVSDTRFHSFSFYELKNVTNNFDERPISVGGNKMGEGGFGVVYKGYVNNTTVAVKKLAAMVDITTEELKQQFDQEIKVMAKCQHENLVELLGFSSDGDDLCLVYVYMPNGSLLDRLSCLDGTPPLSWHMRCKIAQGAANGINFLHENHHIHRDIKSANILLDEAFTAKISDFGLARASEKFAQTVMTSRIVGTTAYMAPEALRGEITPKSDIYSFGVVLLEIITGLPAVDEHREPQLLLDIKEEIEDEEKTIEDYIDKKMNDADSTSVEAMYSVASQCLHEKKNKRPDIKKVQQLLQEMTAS
Description: Objective: In this experiment, the degradation effect of the compound of formula (I) on the target protein IRAK4 in K562 IRAK4-HiBiT cells was detected.
• Cells: K562 IRAK4-HiBiT cells • Culture medium: RPMI 1640 + 10% fetal bovine serum + 2 mM glutamine + 1 mM sodium pyruvate + penicillin/streptomycin • Positive control: 1000 nM; negative control: 0.1% DMSO Table 7. Reagents and consumables […]
• (1) The cell culture medium was discarded, and the cells were washed once with DPBS, digested with trypsin, and counted to prepare a cell suspension of […]. • (2) 25 µL/well of cell suspension was added to the assay plate containing the test compound using Multidrop Combi at medium speed. • (3) The assay plate containing cells was returned to an incubator with 5% CO2 at 37°C and incubated for 16 to 18 hours.
• (1) 25 µL/well of assay reagent (NanoGlo lysis buffer + substrate + LgBit protein) was added to the assay plate using Multidrop Combi at high speed, and the plate was shaken for 10 minutes. • (2) The plate was centrifuged at 2000 rpm for 1 minute to remove air bubbles. • (3) The plate was read on Envision using US Luminescence detection method. […]

IKZF1 = target: T2, IKZF1 (Homo sapiens, UniProt Q13422+Q96SW2); test: In cell western analysis of IKZF1 protein expression level in MM.1S cells; format: cell-based; details: MM1.S, read-out: Maximum Degradation Rate Dmax
T2 construct: expression levels of IKZF1 and IKZF3 proteins in MM.1S cells; host or cells: MM.1S cells
T2 sequence (Q13422 whole entry): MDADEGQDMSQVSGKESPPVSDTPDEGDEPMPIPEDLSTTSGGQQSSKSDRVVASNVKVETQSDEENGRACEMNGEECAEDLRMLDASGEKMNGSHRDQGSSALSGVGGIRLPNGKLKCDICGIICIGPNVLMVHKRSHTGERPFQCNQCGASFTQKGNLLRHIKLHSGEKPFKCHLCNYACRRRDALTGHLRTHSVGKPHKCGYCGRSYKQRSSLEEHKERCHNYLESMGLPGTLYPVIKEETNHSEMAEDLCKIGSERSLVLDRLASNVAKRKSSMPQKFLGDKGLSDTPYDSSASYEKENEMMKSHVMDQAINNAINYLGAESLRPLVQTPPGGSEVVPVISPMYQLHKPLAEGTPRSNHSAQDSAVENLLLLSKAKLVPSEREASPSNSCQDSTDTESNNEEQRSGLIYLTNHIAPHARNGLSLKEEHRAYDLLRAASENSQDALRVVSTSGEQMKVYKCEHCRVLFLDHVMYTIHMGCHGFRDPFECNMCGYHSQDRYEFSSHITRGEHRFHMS
T2 sequence (Q96SW2 whole entry): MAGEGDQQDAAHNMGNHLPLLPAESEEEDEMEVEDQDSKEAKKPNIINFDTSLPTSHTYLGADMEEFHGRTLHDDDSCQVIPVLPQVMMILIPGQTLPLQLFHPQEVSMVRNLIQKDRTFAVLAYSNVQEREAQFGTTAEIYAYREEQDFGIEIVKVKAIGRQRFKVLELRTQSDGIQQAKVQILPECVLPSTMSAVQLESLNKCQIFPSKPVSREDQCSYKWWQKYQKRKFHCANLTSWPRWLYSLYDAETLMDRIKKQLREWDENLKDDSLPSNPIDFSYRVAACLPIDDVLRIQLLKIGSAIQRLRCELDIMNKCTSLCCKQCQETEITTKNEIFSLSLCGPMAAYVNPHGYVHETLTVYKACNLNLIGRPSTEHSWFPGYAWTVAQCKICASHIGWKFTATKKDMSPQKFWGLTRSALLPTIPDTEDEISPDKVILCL
T2 sequence (Q16531 whole entry partner): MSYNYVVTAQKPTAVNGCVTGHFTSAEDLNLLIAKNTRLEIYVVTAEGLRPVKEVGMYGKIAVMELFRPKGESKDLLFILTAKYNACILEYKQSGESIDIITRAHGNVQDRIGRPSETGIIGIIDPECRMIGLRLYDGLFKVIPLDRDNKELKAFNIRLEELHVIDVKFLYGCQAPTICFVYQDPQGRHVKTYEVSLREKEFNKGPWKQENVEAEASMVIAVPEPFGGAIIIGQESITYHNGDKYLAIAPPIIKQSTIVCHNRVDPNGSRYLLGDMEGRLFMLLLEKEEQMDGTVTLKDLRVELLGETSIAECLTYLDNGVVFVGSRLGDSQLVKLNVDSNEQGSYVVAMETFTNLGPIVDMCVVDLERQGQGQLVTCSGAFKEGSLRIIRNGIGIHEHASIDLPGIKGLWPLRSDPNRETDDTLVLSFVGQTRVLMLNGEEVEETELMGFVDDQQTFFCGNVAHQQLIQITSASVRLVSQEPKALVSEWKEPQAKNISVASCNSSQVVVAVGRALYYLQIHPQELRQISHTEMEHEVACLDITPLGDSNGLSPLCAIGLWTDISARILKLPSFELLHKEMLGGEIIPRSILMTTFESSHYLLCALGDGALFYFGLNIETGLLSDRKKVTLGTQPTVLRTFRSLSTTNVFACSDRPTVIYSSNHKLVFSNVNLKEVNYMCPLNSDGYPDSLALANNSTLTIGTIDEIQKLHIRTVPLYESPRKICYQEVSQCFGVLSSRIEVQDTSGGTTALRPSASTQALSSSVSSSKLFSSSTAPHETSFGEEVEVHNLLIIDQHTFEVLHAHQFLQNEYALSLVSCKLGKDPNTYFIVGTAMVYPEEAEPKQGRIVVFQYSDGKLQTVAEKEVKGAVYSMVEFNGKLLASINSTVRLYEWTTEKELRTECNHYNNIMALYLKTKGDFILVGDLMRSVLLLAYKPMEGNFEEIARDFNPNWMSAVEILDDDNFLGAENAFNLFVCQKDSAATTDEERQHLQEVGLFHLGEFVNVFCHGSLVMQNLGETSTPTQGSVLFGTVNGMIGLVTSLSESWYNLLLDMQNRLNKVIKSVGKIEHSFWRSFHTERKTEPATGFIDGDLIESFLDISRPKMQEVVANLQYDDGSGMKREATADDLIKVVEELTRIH
Description: (§1) Objective: The experiment was conducted to evaluate the degradation effects of the compound of formula (I) on IKZF1 and IKZF3 proteins in MM.1S cells by detecting their impact on the expression levels of IKZF1 and IKZF3 proteins in MM.1S cells.
(§2) • Cell line: MM.1S cell (obtained from ATCC; Cat. No. CRL-2974) • Negative control: 0.1% DMSO Table 10. Reagents and consumables
(§3) • 1) MM.1S cells in the logarithmic growth phase were seeded into a 96-well plate at 1.2×10^5 cells per well and cultured overnight. • 2) On the second day, drug treatment was initiated with a starting concentration of 300 nM, followed by a 3-fold dilution in triplicate wells, with 10 concentration gradients (containing DMSO), and incubated for 24 hours in a culture incubator. • 3) The mixture was centrifuged, and the cell supernatant was carefully removed. […]
(§4) GraphPad Prism 6 software was utilized to fit the curve with the inhibition rate data, and the DC50 value was calculated.

[1] = Pharmacokinetic evaluation in beagle dogs; format: in vivo, Male beagle dogs; details: fed
Description: Male beagle dogs were selected as the experimental animals in this study.
Beagle dogs (male, 7 to 10 kg, Beijing Mars Biotechnology Co., Ltd.).
A clear solution of the test compound was slowly injected intravenously into beagle dogs (fed) via the peripheral vein (vehicle: 5% DMSO/10% Solutol/85% H2O), or administered intragastrically to beagle dogs (fed). For intravenous administration, 0.5 mL of blood was collected from the peripheral vein at 0.083, 0.25, 0.5, 1, 2, 4, 6, 8, and 24 h after administration, placed in EDTA-2K anticoagulant tubes, and centrifuged at 3200 g for 10 minutes at 2 to 8°C to separate the supernatant. For intragastric administration, 0.5 mL of blood was collected from the peripheral vein at 0.083, 0.25, 0.5, 1, 2, 4, 6, 8, and 24 h after administration, placed in EDTA-2K anticoagulant tubes, and centrifuged at 3200 g for 10 minutes at 2 to 8°C to separate the supernatant. Plasma drug concentrations were determined by the LC-MS/MS method, and relevant pharmacokinetic parameters were calculated using Phoenix WinNonlin 6.3 pharmacokinetic software with non-compartmental model linear-log trapezoidal method.

[2] = Pharmacokinetic evaluation in mice; format: in vivo, C57BL/6 or C57 male mice
From the text: C57BL/6 or C57 male mice were selected as the test animals for this study. The LC/MS/MS method was employed to quantitatively determine the plasma drug concentrations at various time points after intravenous injection or intragastric administration of the test compound, aiming to evaluate the pharmacokinetic characteristics of the compound of the present disclosure in mice.
C57BL/6 or C57 mice (male, 20 to 30g, 7 to 10 weeks old, Beijing Vital River).
A clear solution of the test compound was injected intravenously into the tail vein of C57BL/6 mice (fasted overnight) (vehicle: 10% DMSO/10% solutol/80% H2O), or administered intragastrically to C57 mice (fed). […] The mixture was thoroughly vortexed and mixed, and centrifuged at 6000 g for 3 minutes at 2 to 8°C. […] The mixture was thoroughly vortexed and mixed, and centrifuged at 6000 g for 3 minutes at 2 to 8°C. Plasma drug concentrations were determined by the LC-MS/MS method, and relevant pharmacokinetic parameters were calculated using Phoenix WinNonlin 8.2.0 pharmacokinetic software with non-compartmental model linear-log trapezoidal method.

IKZF3 = target: T3, IKZF3 (Homo sapiens, UniProt Q96SW2+Q9UKT9); test: In cell western analysis of IKZF3 protein expression level in MM.1S cells; format: cell-based; details: MM1.S, read-out: Maximum Degradation Rate Dmax
T3 construct: expression levels of IKZF1 and IKZF3 proteins in MM.1S cells; host or cells: MM.1S cells
T3 sequence (Q9UKT9 whole entry): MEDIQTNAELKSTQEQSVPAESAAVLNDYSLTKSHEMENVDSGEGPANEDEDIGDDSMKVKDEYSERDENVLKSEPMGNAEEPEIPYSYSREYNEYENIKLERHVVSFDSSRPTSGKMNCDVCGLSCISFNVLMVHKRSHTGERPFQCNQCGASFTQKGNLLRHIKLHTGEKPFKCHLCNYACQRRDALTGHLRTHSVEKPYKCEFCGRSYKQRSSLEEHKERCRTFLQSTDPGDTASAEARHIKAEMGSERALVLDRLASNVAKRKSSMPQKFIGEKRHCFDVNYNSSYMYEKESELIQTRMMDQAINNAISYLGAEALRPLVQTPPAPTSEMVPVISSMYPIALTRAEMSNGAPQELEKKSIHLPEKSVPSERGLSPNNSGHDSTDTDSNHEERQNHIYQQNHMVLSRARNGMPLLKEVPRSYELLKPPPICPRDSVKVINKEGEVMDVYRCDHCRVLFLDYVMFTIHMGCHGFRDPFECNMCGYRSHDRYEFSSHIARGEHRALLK
T3 sequence (Q96SW2 whole entry): as the sequence (Q96SW2 whole entry) above
T3 sequence (Q16531 whole entry partner): as the sequence (Q16531 whole entry partner) above
Description: as §1, §2, §3, §4

[3] = Intragastric Administration (5 mg/kg)
[4] = Intragastric Administration (10 mg/kg) (fed)

O=C1CCC(c2noc3ccc4c(NC(=O)CN5CCN(C[C@H]6CC[C@H](n7cc(NC(=O)c8coc(-c9ccnc(NCC%10CC%10)c9)n8)c(C(F)F)n7)CC6)CC5)cccc4c23)C(=O)N1 (stereo partly drawn) [Hydrochloride of Compound of Formula (I)]
Dmax (IRAK4): 108%
Dmax (IKZF1): 72.3%
Area Under the Drug-Time Curve (0-inf) [1, 3]: 3.20 µM·h
Peak Concentration [1, 3]: 0.41 µM
Area Under the Drug-Time Curve (0-inf) ([1]; Intravenous Injection (0.5 mg/kg)): 0.44 µM·h
Area Under the Drug-Time Curve (0-inf) [2, 4]: 4.47 µM·h
Peak Concentration [2, 4]: 0.54 µM
Area Under the Drug-Time Curve (0-inf) ([2]; Intravenous Injection (2 mg/kg) (fasted)): 5.40 µM·h
Dmax (IKZF3): 73.5%
